Each structure is given as a SMILES string.

The assay concerns the target GLPX (Rv1099c) (Mycobacterium tuberculosis, UniProt P9WN21). Format: biochemical.

Regarding `O=P(O)(O)OC[C@H]1OC(O)(COP(=O)(O)O)[C@@H](O)[C@@H]1O` (stereo partly shown) [fructose 1,6-bisphosphate], the “coupled spectrophotometric assay (phosphoglucoisomerase / G6P dehydrogenase, NAD)” value is given as “Expression of GLPX in ΔglpXΔgpm2 provided lithium-sensitive FBPase activity”.

Values taken from paper PMC4535450, “Two enzymes with redundant fructose bisphosphatase activity sustain gluconeogenesis and virulence in Mycobacterium tuberculosis” (Nature Communications, 2015).
